Reference: patent US10005818B2, “Derivative peptide compounds and methods of use” (REALTA HOLDINGS, LLC, priority 2010, dated 2018)
Like-named read-outs stand apart in the source and are kept apart here.

Tests used:
Solubility in water = assay type: physicochemical
[1] = for ALT / AST / AlkPhos / BUN / Bilirubin / CPK / Creatinine / GGT / Lipase / Platelets / RBC / WBC: rats
Experimental: Toxicity studies were later performed with larger numbers of animals (n=18 in the treatment group) using a high-dose at the upper end of the therapeutic range (PA-PEG24 (SEQ ID NO: 21) at 40 mg [160 mg/kg] i.v.). Eight animals were sacrificed at day 3, and ten were sacrificed at day 14.

[2] = 60 mg [240 mg/kg] i.v.; for ALT / AST / AlkPhos / BUN / Bilirubin / CPK / Creatinine / GGT / Lipase / Platelets / RBC / WBC: rats, n = 6
CV-1 cells = assay: Toxicity in CV-1 cells
HSV-1 = assay: HSV-1-GFP infection of CV-1 cells, flow cytometry; assay type: cell-based, Herpes Simplex Virus Type 1; conditions: added to CV-1 cells before infection; 16 hours
Experimental: CV-1 cells were infected with HSV-1-GFP for 16 hours. Post-infection, CV-1 cells were detected by flow cytometry (FIG. 33). […] Acyclovir (the standard of care for severe HSV-1 infections) was also added as a control at the same molar ratio.

acute kidney injury = assay: Acute kidney injury after xenotransfusion in AIHTR rat model (IVIG vs PIC1); assay type: in vivo; conditions: prophylaxis 40 mg/animal
Experimental: For both experiments, animals allotted to the saline control group received NS prior to huRBC transfusion whereas the CVF group received 130 μg CVF (Complement Technologies, Inc.) intra-peritoneum (I.P.) 24 hours prior to the huRBC transfusion.
Using weight-based doses of ketamine and acepromazine, animals were sedated throughout the course of the experiment with periodic monitoring of vital signs. Blood samples were collected into EDTA microtainer tubes (BD) from the animals prior to the huRBC transfusion and then at 30 seconds, 5 minutes, 20 minutes, 60 minutes and 120 minutes after the huRBC transfusion. […] These samples were kept shaking at room temperature prior to processing and centrifuged at 2655×g for five minutes to separate out the plasma and sediment the RBCs. Plasma was aliquoted and the RBC pellet was processed separately as described below. Upon completion of the final (120 minutes or 360 minutes) blood draw, the animal was euthanized using Fatal Plus (Vortech). A necropsy was completed to collect organs (liver, spleen and bilateral kidney) for histopathology. […] Hematoxylin and eosin (H&E) stained sections were reviewed by a blinded pathologist.
To ascertain if the intravascular toxic free Hb would cause acute kidney injury, the animals were monitored for 6 hours post-transfusion.

[3] = system: complement-mediated hemolysis of transfused huRBCs; assay: AIHTR Wistar rat model, 15% xenotransfusion of human RBCs; assay type: in vivo; conditions: CVF 130 μg I.P. 24 hours prior to transfusion
Experimental: This process generates 1 ml huRBCs at 80% hematocrit, which was given as a 15% transfusion to the rats.
Plasma generated from the above experiments was analyzed for the free hemoglobin using spectrophotometry, as described previously (Shah et al. “Clinical hypothermia temperatures increase complement activation and cell destruction via the classical pathway.” J Transl Med 2014; 12:181.).

[4] = system: hypoxic ischemic brain injury; assay type: in vivo, Wistar rat
[5] = 40 mg [160 mg/kg] i.v., 48 Hr, n = 8
[6] = 40 mg [160 mg/kg] i.v., Day14, n = 10

In the case of CC[C@H](C)[C@H](N)C(=O)N[C@@H](C)C(=O)N[C@@H](CC(C)C)C(=O)N[C@H](C(=O)N[C@@H](CC(C)C)C(=O)N[C@@H](CCC(=O)O)C(=O)N1CCC[C@H]1C(=O)N[C@H](C(=O)N[C@@H](CS)C(=O)N[C@@H](CS)C(=O)N[C@@H](CCC(N)=O)C(=O)N[C@@H](CCC(=O)O)C(=O)N[C@@H](CCCNC(=N)N)C(=O)N[C@@H](C)C(=O)N[C@@H](C)C(=O)NCCOCCOCCOCCOCCOCCOCCOCCOCCOCCOCCOCCOCCOCCOCCOCCOCCOCCOCCOCCOCCOCCOCCOCCOCCC(=O)O)[C@@H](C)CC)[C@@H](C)CC [PA-dPEG24], the “solubility in water / aqueous solutions” value (Solubility in water) is reported as “soluble in water”, the Solubility in water (Solubility in water; Table 6, PEGylated PA peptides) is reported as “Yes” and the Solubility in water (Solubility in water; Table 7, PEGylated and sarcosine/alanine substitution peptides) is reported as “Yes”. For the same compound, the “blood chemistry assay results (CBC, superchem, coagulation)” value ([1]; 40 mg [160 mg/kg] i.v.) was “no differences between pretreatment, day 3 or day 14 values”, the organ histology ([1]; 40 mg [160 mg/kg] i.v., day 3 and day 14) was “no histological evidence for toxicity in any organ” and the single-dose toxicological evaluation ([1]; rat, in vivo) was “no safety concerns”. The ALT [1, 5] was 62.8 (±4.0) U/L, the AST [1, 5] was 108 (±26) U/L and the AlkPhos [1, 5] was 104 (±19) U/L. The BUN [1, 5] was 17.8 (±3.2) mg/dL, the Bilirubin [1, 5] was 0.1 (±0) mg/dL and the CPK [1, 5] was 538 (±128) U/L. The Creatinine [1, 5] was 0.3 (±0) mg/dL, the GGT [1, 5] was 1.0 (±0) U/L and the Lipase [1, 5] was 11.8 (±1.5) U/L. For the same compound, the Platelets [1, 5] was 987 (±93) 10^3/μL, the RBC [1, 5] was 5.8 (±0.5) 10^6/μL and the WBC [1, 5] was 6.0 (±3.0) 10^3/mL. For the same compound, the ALT [1, 6] was 77.4 (±13.9) U/L, the AST [1, 6] was 111 (±14) U/L and the AlkPhos [1, 6] was 115 (±56) U/L. For the same compound, the BUN [1, 6] was 13.2 (±1.9) mg/dL, the Bilirubin [1, 6] was 0.1 (±0) mg/dL and the CPK [1, 6] was 592 (±163) U/L. The Creatinine [1, 6] was 0.3 (±0) mg/dL, the GGT [1, 6] was 1.1 (±0.4) U/L and the Lipase [1, 6] was 6.4 (±1.3) U/L. The Platelets [1, 6] was 825 (±229) 10^3/μL, the RBC [1, 6] was 6.6 (±0.4) 10^6/μL and the WBC [1, 6] was 7.3 (±2.5) 10^3/mL. For the same compound, the organ histology ([2]; brain, heart, lungs, liver, spleen, kidneys, pancreas) was “Normal histology”, the “blood work (CBC and complete blood chemistry)” value ([2]; first 24 hours, 48 hours, day 7 or day 14) was “No toxicities” and the ALT ([2]; 48 Hr) was 44.0 (±10.4) U/L. For the same compound, the AST ([2]; 48 Hr) was 69.0 (±8.7) U/L, the AlkPhos ([2]; 48 Hr) was 194 (±29) U/L and the BUN ([2]; 48 Hr) was 15.8 (±2.1) mg/dL. The Bilirubin ([2]; 48 Hr) was 0.1 (±0) mg/dL, the CPK ([2]; 48 Hr) was 142 (±47) U/L and the Creatinine ([2]; 48 Hr) was 0.3 (±0) mg/dL. For the same compound, the GGT ([2]; 48 Hr) was 1 (±0) U/L, the Lipase ([2]; 48 Hr) was 10.3 (±1.5) U/L and the Platelets ([2]; 48 Hr) was 1045 (±156) 10^3/μL. The RBC ([2]; 48 Hr) was 5.3 (±0.3) 10^6/μL, the WBC ([2]; 48 Hr) was 10.5 (±2.9) 10^3/mL and the ALT ([2]; Day7) was 76.3 (±10.9) U/L. For the same compound, the AST ([2]; Day7) was 84.3 (±6.74) U/L, the AlkPhos ([2]; Day7) was 147 (±34) U/L and the BUN ([2]; Day7) was 13.5 (±1.64) mg/dL. The Bilirubin ([2]; Day7) was 0.1 (±0) mg/dL, the CPK ([2]; Day7) was 316 (±90) U/L and the Creatinine ([2]; Day7) was 0.4 (±0.1) mg/dL. The GGT ([2]; Day7) was 1 (±0) U/L, the Lipase ([2]; Day7) was 8.5 (±1.05) U/L and the Platelets ([2]; Day7) was 623 (±417) 10^3/μL. For the same compound, the RBC ([2]; Day7) was 5.8 (±0.5) 10^6/μL, the WBC ([2]; Day7) was 5.4 (±1.12) 10^3/mL and the ALT ([2]; Day14) was 55.8 (±5.6) U/L. For the same compound, the AST ([2]; Day14) was 104 (±15) U/L, the AlkPhos ([2]; Day14) was 154 (±42) U/L and the BUN ([2]; Day14) was 14.7 (±1.0) mg/dL. For the same compound, the Bilirubin ([2]; Day14) was 0.1 (±0) mg/dL, the CPK ([2]; Day14) was 580 (±172) U/L and the Creatinine ([2]; Day14) was 0.4 (±0.1) mg/dL. The GGT ([2]; Day14) was 1 (±0) U/L, the Lipase ([2]; Day14) was 9.7 (±2.0) U/L and the “toxicity in CV-1 cells” value (CV-1 cells) was “minimal toxicity”.

With Nc1nc2c(ncn2COCCO)c(=O)[nH]1 [Acyclovir, reference compound] the “inhibition of HSV-1 infection / replication” value (HSV-1) was “never able to completely inhibit replication” and the “toxicity in CV-1 cells” value (CV-1 cells) was “minimal toxicity”.

In the case of Immune globulin intravenous [IVIG], the “gross appearance of kidneys at necropsy” value (acute kidney injury) is reported as “looked darker and enlarged”, the kidney weight (acute kidney injury) is reported as “significant increase in weight compared to animals receiving PIC1” and the “gross hematuria / urine appearance” value (acute kidney injury; 6 hours post-transfusion) is reported as “two of the three animals”. The kidney histopathology (acute kidney injury; H&E) was “early acute tubular necrosis”.

With cobra venom factor [CVF] the “free hemoglobin in rat plasma” value [3] was “low levels of free hemoglobin”, the brain injury ([4]; CVF injection before ligation/hypoxia) was “almost completely attenuated brain injury” and the systemic complement activity ([4]; CVF injection, for 72 hours after injection) was “almost completely eliminated”.
